In patent US11844866B2, “Gastroretentive extended release dosage form” (Novelstar Pharmaceuticals, Inc., priority 2020, dated 2023):
Read-outs that look alike come from different tables or passages of the source. Blank lines part the entries; values can stand above or below the compound they belong to.

What was measured:
[1] = API stability studies (stress, long term, accelerated; enantiomer interconversion); type: physicochemical
Source text: Polymorphism has been observed for Apremilast and seven polymorphic forms (designated A-G) of the active substance were identified.
An amorphous form generally provides better solubility and bioavailability than the crystalline form and may be useful for formulations which can have better solubility, and compressibility etc. which are important for formulation and product manufacturing.

API particle size (d90) = type: physicochemical; conditions: API particles
[2] = Solubility of Tofacitinib citrate in different pH media and water; type: physicochemical; conditions: 37 °C, read-out: Solubility @37° C., mg/mL for 6 hours
Protocol: The active substance is a white to off-white solid, slightly soluble in water (2.9 mg/mL) and non-hygroscopic. Tofacitinib contains two chiral centers at C3 and C4. The active substance is the enantiomer with absolute configuration (R) for both the C-3 and the C-4 positions. The overall stereochemistry of tofacitinib is therefore considered as critical and is assured by the quality of the starting materials and the route of synthesis design.
Polymorphism has been studied for the active substance. The crystalline citrate salt, Form A, has been the sole development form of the active substance used in all toxicology and clinical studies. The solubility Tofacitinib citrate is pH dependent, the solubility is decried with pH increasing. […] The pH dependent solubility can lead to pH-dependent in vivo drug release from sustained release matrices. Drug release varies as a function of movement through segments of the gastrointestinal tract with different pH. […] The Tofacitinib citrate gastric retention drug delivery system that would provide the highest bioavailability are very desirable because the drug active has highest solubility in the stomach.

[3] = slightly soluble; cited from earlier work
[4] = on storage and in vivo; cited from earlier work
[5] = cited from earlier work
[6] = previously reported dosage form; cited from earlier work

stability after 6 months ([1]; stress conditions, long term 25° C./60% RH and accelerated 40° C./75% RH): stable | particle size d90 (API particle size (d90); listed as Apremilast amorphous form): 22 μm
SMILES: CCOc1cc([C@@H](CS(C)(=O)=O)N2C(=O)c3cccc(NC(C)=O)c3C2=O)ccc1OC [Apremilast amorphous]

SMILES: C[C@@H]1CCN(C(=O)CC#N)C[C@@H]1N(C)c1ncnc2[nH]ccc12.O=C(O)CC(O)(CC(=O)O)C(=O)O [Tofacitinib citrate, 3-((3R,4R)-4-methyl-3-(methyl(7H-pyrrolo[2,3-d]pyrimidin-4 yl)amino)piperidin-1-yl)-3-oxopropanenitrile, 2-hydroxypropane-1,2,3-tricarboxylic acid]
solubility at 6 h ([2]; pH 1.18, simulated gastric fluid, thermodynamic from solid, 0.1N HCl, final pH observed 1.18): 27.8 mg/mL | solubility at 6 h ([2]; pH 4.9, thermodynamic from solid, Water, final pH observed 4.90): 2.9 mg/mL | solubility at 6 h ([2]; pH 4.5 medium, aqueous buffer, thermodynamic from solid, pH 4.5, final pH observed 4.50): 4.57 mg/mL | solubility at 6 h ([2]; pH 6.8 medium, aqueous buffer, thermodynamic from solid, pH 6.8, final pH observed 6.78): 2.03 mg/mL | solubility in water [3]: 2.9 mg/mL

stability after exposing to different stress test conditions ([1]; stress test conditions): stable | particle size d90 (API particle size (d90)): 8 μm
SMILES: CCOc1cc([C@@H](CS(C)(=O)=O)N2C(=O)c3cccc(NC(C)=O)c3C2=O)ccc1OC [Apremilast Form B]

SMILES: CCOc1cc([C@@H](CS(C)(=O)=O)N2C(=O)c3cccc(NC(C)=O)c3C2=O)ccc1OC [Apremilast, (+) enantiomer of 2-[1-(3-ethoxy-4-methoxyphenyl)-2-methanesulfonylethyl]-4-acetylaminoisoindolin-1,3-dione]
interconversion of (S)-enantiomer to (R)-enantiomer [4]: no interconversion | solubility in aqueous buffers ([5]; irrespective of pH range): practically insoluble | Biopharmaceutical Classification System class ([5]; low solubility and low permeability): BCS Class 4 | share of absorption taking place in the proximal small bowel [6]: about 93%
